Results: US10668048B2, “Compounds for inhibiting bacterial growth via phosphatidylglycerol binding” (Wichita State University, priority 2016, dated 2020)

Assays:
Format in all cases: cell-based
[1] = system: E. coli (MC4100); experiment: Overnight growth study in LB broth
Text: This spectrum is identical to the spectrum of just liptin in water illustrating that the liptin is not degraded or metabolized when exposed to bacteria over long periods of time.

[2] = system: Escherichia coli str. MC4100; experiment: Long term growth study in brain-heart infusion medium
Procedure: (§1) Staphylococcus aureus str. ATCC 29213 was grown as shake-tubes in brain-heart infusion medium supplemented with liptin and culture densities were measured by turbidity (FIG. 13A). At 0.5 μM 3e, there was an 8-h lag phase before culture density began to increase, which was not seen without addition of liptin 3e. Further, the growth rate was substantially lower over the next 12 h as culture density approached that of controls. Lag phases were on the order of days to weeks at liptin concentrations of ≥1.5 μM, and slow recovery followed. […] Growth of Escherichia coli str. […] Our novel antibacterial compounds attack plasma membranes through a less specific mode of action, which may avoid the pitfalls that lead to antibiotic resistance.

[3] = system: Staphylococcus aureus str. ATCC 29213; experiment: as above
Procedure: as §1

[4] = system: E. coli (MC4100); experiment: Serial passage resistance experiment; conditions: 0.5 MIC, LB, 37° C., 80-100 generations
Text: Triplicate serial passage experiments were undertaken with E. coli (MC4100), S. aureus (33186) and E. feucalis (29213).

[5] = system: S. aureus plasma membrane; experiment: Plasma membrane depolarization, DiS-C2(5) fluorescence; conditions: 0.69-2.6 μM added at 90 s
Procedure: The graph in FIGS. 15A-15C represents the depolarization of S. aureus plasma membrane measured by an increase in the fluorescence of 3,3-diethylthiodicabodyanine iodide. The dye, which has direct access to the Gram-positive plasma membrane, becomes highly fluorescent in membranes where polarization is lost. […] The membrane effects were measured against the known membrane-disruptive agent, cationic steroid antimicrobial-25 (CSA-25), one of a group of cholic acid-derived antimicrobial also known as ceragenins. This assay measured the effects of the Ammonium-picket porphyrin alone those of CSA-25 alone or a combination of Ammonium-picket porphyrin and CSA-25.
Bacterial cultures were grown overnight in TSB at 37° C. Cells were harvested by centrifugation and washed in a buffer containing 250 mM sucrose, 5 mM MgSO4, and 10 mM potassium phosphate (pH 7.0). After three washings, pellets were re-suspended in the same buffer. […] Fluorescence measurements were taken at 30-s intervals before and after addition of ceragenins. FIG. 15A illustrates the depolarization of S. aureus measured by an increase in fluorescence of 3,3′ diethylthiodicarbodyanine iodide (DiS-C2(5)). […]
FIG. 15B illustrates the depolarization of S. aureus measured by an increase in fluorescence of 3,3′ diethylthiodicarbodyanine iodide. […]

[6] = system: E. coli strain MC4100; experiment: IPTG-induced PapD overexpression, gel electrophoresis; conditions: IPTG and 5 μM
Text: The E. coli strain MC4100 will produce the pili chaperone PapD, a periplasmic protein, when induced by IPTG. […] The left panel represents the periplasmic fraction with lanes running left to right: ladder, NR, C, R, all with no IPTG; NR+IPTG, C+IPTG, R+IPTG (negative control was porphyrin A) or in the cytosol represented in the right panel with lanes running from left to right: NR, C, R, all with no IPTG; ladder, NR+IPTG, C+IPTG, R+IPTG (negative control was porphyrin A). (NR=no liptin, C=control, R=liptin). IPTG gets into the cytoplasm most efficiently via uphil symport via the plasma membrane protein lac permease when the plasma membrane is fully polarized.

[7] = system: HepG2 human hepatocyte cells; experiment: Hepatocyte toxicity, MTT assay; conditions: 9-12 hours; down to 0.5 μM
Procedure: Toxicity of compounds to eukaryotic cells was assessed by MTT assay of cultured HepG2 human hepatocyte cells grown in media supplemented with 10% fetal bovine serum and antibiotics.
Human liver HepG2 cells were cultured in 100 mm^2 Falcon tissue culture plates in DMEM with high glucose (4500 mg/L) supplemented with 10% fetal bovine serum, 50 μg/ml streptomycin and 50 IU/ml penicillin at 37° C. and 5% CO2. Cells were cultured to about 70-80% confluence, and then seeded into 96 well plates depending and grown to 70-80% confluence for 2-3 days unless otherwise stated.
Cell viability was determined by MTT [3-(4,5-dimethylthiazol-2-yl)-2,5-diphenyltetrazolium bromide)] assay (Denizot & Lang 1986). Briefly, cells were seeded on 96-well plates and allowed to grow until 70-80% confluence. Prior to the experiment, medium was replaced with KRB containing a desired concentration of the toxin or other reagents and incubated for 9 h to 12 h depending on the experiment at 37° C. […] The resulting formazan was solubilized by the addition of 210 μL detergent solution (50% DMF, 20% SDS) followed by incubation for 4 h at 37° C. and was quantified based on the difference in the absorbance at 570 nm and 650 nm (Mosmann 1983). Results are expressed as viability of toxin treated cells with respect to control cells which were treated under the same conditions except in the absence of the toxin. […]

[8] = system: Red blood cells (RBCs); experiment: Erythrocyte toxicity, hemoglobin release at 414 nm; conditions: 2.5-5 μM, 30 minutes, 37° C.
Procedure: Toxicity of liptin 3e to eukaryotic erythrocytes was assessed by UV/Visible spectroscopy, whereby the change in absorbance at 414 nm was used to quantify the release of hemoglobin, where 100% hemolysis was measured by adding 1% Triton X-100 detergent. Red blood cells (RBCs) were suspended in a buffer of 25 mM TRIS and 1.5 mM dihydrogenphosphate anion (serum inorganic phosphate levels). To the RBCs samples was added differing concentration of 3e—2.5 μM, 5 μM, 7.5 μM, and 10 μM, as well as control containing no 3e, and after 30 minutes incubation and gentle shaking at 37° C. spectra were obtained.

For `NCC(=O)Nc1ccccc1-c1c2nc(c(-c3ccccc3NC(=O)CN)c3ccc([nH]3)c(-c3ccccc3NC(=O)CN)c3nc(c(-c4ccccc4NC(=O)CN)c4ccc1[nH]4)C=C3)C=C2.O=C(O)C(F)(F)F.O=C(O)C(F)(F)F.O=C(O)C(F)(F)F.O=C(O)C(F)(F)F` [Liptin 3e], the “stability: UV/Visible spectrum of membrane-bound liptin” value ([1]; 12 hours in bacterial culture) was “no change”, the “time until bacterial replication completely stops” value ([1]; one-time addition of 10 μM, growth phase, 37° C., OD=0.2, stopped for 12 hours) was 1 to 2 h and the lag phases ([2]; 1.5 μM) was 8 h. For the same compound, the lag phases ([2]; 10 μM) was “greater than 24 h”, the lag phase ([3]; 0.5 μM) was 8 h and the lag phases ([3]; ≥1.5 μM) was “days to weeks”. For the same compound, the “MIC after 15 serial passages” value [4] was “no different than initial MICs”, the “depolarization: fluorescence of 3,3-diethylthiodicabodyanine iodide” value [5] was “increased in a concentration-dependent manner” and the “PapD in periplasmic space or cytosol” value [6] was “no PapD was found”. The “toxicity (cell viability, MTT)” value [7] was “lack of toxicity” and the “damage to red blood cells (hemolysis)” value [8] was 4.5-11%.
